From patent US20250032623A1, “HETEROBIFUNCTIONAL COMPOUNDS AND THEIR USE IN TREATING DISEASE” (HALDA THERAPEUTICS OPCO, INC., priority 2021, published 2025)

Key:
[1] = molecular target: T1, EGFR T790M, L858R (amino acids 669-1011 Accession Number NP_005219.2) (Homo sapiens, UniProt P00533, L858R/T790M); assay: KdELECT binding assay (Eurofins Discovery), EGFR T790M, L858R; details: read-out: EGFR DM Kd
T1 construct: purchased Eurofins Discovery; host or cells: mammalian cells (HEK-293)
Procedure: (§1) Exemplary compounds were tested for ability to bind to EGFR WT (amino acids 669-1011, Accession Number NP_005219.2) or EGFR T790M, L858R (amino acids 669-1011 Accession Number NP_005219.2) expressed from bacteria or mammalian cells, respectively. Compounds were tested using the KdELECT assay at Eurofins Discovery.
(§2) Kinase-tagged T7 phage strains were prepared in an E. coli host derived from the BL21 strain. E. coli were grown to log-phase and infected with T7 phage and incubated with shaking at 32° C. until lysis. The lysates were centrifuged and filtered to remove cell debris. The remaining kinases were produced in HEK-293 cells and subsequently tagged with DNA for qPCR detection. Streptavidin-coated magnetic beads were treated with biotinylated small molecule ligands for 30 minutes at room temperature to generate affinity resins for kinase assays. The liganded beads were blocked with excess biotin and washed with blocking buffer (SeaBlock (Pierce), 1% BSA, 0.05% Tween 20, 1 mM DTT) to remove unbound ligand and to reduce non-specific binding. Binding reactions were assembled by combining kinases, liganded affinity beads, and test compounds in 1× binding buffer (20% SeaBlock, 0.17×PBS, 0.05% Tween 20, 6 mM DTT). Test compounds were prepared as 111× stocks in 100% DMSO. Kd values were determined using an 11-point 3-fold compound dilution series with three DMSO control points. All compounds for Kd measurements are distributed by acoustic transfer (non-contact dispensing) in 100% DMSO. The compounds were then diluted directly into the assays such that the final concentration of DMSO was 0.9%. All reactions performed in polypropylene 384-well plate. Each was a final volume of 0.02 mL. The assay plates were incubated at room temperature with shaking for 1 hour and the affinity beads were washed with wash buffer (1× PBS, 0.05% Tween 20). The beads were then re-suspended in elution buffer (1× PBS, 0.05% Tween 20, 0.5 μM nonbiotinylated affinity ligand) and incubated at room temperature with shaking for 30 minutes. The kinase concentration in the eluates was measured by qPCR.

HeLa cells = assay: Cellular growth inhibition assay (CellTiter-Glo), HeLa cells; format: cell-based; details: Homo sapiens, 72 h, three days compound treatment, CellTiter-Glo 2.0, read-out: CTG HELA GI50
Procedure: Exemplary compounds were tested for ability to inhibit the proliferation of HEK293 cells or HeLa cells.
HEK293 and HeLa cells were cultured in DMEM medium supplemented with 10% fetal bovine serum and 1% Penn/Strep. Cells were seeded in white 384-well plates at 500 cells/well in […] complete medium. Following seeding, plates were spun at 300×g for three minutes and cultured at 37° C. with 5% CO2 in a humidified tissue culture incubator.
After 24 hours, compounds were titrated in 100% DMSO and diluted in complete cell culture medium. […] of compound/media mixture was added to cells to bring total volume in well to […]. DMSO alone was used as a negative control. P lates were then spun at 300×g for three minutes and stored at 37° C. with 5% CO2 for three days.
On Day 0 and Day 3 of compound treatment, cell viability was quantified with CellTiter-Glo 2.0 reagent (Promega). After equilibrating microplates at room temperature for 30 minutes, 25 μL CellTiter-Glo 2.0 reagent was dispensed into each well to bring total volume to […]. Plates were mixed on shaker for 2 minutes at 500 rpm, followed by a 10-minute incubation at room temperature. Following a quick spin, luminescence readings were measured with an EnVision Plate Reader. Data was normalized to DMSO treated Day 0 and Day 3 readings. A four-parameter non-linear regression curve fit was applied to dose-response data in GraphPad Prism data analysis software to determine the half maximal growth inhibitory concentration (GI50) for each compound.

EGFR = molecular target: T2, EGFR (Homo sapiens, UniProt P00533); assay: KdELECT binding assay, EGFR
T2 construct: purchased
T2 sequence (P00533 25-1210): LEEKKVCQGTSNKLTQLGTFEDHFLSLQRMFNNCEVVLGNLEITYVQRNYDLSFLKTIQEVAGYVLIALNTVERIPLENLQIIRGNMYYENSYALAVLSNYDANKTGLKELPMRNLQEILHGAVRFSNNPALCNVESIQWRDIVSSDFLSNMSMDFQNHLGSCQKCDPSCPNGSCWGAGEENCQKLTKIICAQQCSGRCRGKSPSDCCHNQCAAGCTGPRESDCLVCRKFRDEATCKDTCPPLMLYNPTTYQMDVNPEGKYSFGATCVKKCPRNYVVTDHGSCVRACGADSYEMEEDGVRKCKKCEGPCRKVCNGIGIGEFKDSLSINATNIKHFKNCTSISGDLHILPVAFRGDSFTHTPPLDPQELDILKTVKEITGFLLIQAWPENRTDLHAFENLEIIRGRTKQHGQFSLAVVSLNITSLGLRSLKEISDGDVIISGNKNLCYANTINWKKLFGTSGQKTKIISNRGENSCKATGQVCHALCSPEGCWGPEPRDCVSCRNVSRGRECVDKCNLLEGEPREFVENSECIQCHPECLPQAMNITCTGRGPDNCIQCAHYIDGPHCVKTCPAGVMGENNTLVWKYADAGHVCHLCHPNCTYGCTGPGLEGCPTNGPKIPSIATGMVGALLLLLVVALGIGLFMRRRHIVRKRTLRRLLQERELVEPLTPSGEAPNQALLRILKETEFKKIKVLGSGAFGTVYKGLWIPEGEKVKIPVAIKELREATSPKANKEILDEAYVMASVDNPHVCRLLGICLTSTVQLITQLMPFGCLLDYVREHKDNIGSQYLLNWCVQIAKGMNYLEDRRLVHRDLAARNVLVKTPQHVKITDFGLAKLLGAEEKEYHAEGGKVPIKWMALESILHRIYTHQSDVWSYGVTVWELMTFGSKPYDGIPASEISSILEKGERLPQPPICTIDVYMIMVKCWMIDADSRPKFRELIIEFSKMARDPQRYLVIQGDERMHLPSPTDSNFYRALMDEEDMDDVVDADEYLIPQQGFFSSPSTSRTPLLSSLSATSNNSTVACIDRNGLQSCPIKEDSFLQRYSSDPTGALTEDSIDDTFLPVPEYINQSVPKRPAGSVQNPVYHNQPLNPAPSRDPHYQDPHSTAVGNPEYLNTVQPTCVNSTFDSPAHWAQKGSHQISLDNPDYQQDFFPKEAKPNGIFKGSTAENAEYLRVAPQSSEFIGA
Method in brief: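 Competition binding: DNA- or T7 phage-tagged EGFR was incubated 1 h at room temperature with immobilized ligand beads and an 11-point 3-fold compound series (0.9% DMSO final). Bead-bound kinase was eluted and quantified by qPCR to derive Kd.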

[2] = molecular target: T3, EGFR WT (amino acids 669-1011, Accession Number NP_005219.2) (Homo sapiens, UniProt P00533); assay: KdELECT binding assay (Eurofins Discovery), EGFR WT
T3 construct: purchased Eurofins Discovery; host or cells: bacteria (E. coli, BL21-derived, T7 phage)
T3 sequence (P00533 669-1011): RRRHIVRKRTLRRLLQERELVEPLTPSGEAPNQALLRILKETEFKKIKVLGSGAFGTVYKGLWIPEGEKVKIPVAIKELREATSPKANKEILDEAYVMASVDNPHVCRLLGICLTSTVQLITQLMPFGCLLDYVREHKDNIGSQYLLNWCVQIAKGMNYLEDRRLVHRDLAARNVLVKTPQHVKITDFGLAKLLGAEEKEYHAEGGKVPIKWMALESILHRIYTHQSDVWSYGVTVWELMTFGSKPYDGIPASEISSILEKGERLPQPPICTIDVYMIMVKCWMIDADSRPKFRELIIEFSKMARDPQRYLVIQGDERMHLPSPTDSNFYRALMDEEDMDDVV
Procedure: as §1, §2

HEK293 cells = assay: Cellular growth inhibition assay (CellTiter-Glo), HEK293 cells; format: cell-based; details: Homo sapiens, 72 h, three days compound treatment, CellTiter-Glo 2.0, read-out: CTG HEK293 GI50
Method in brief: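 HEK293 or HeLa cells seeded at 500 cells/well in DMEM with 10% FBS, treated after 24 h with titrated compound for three days at 37 °C, 5% CO2. CellTiter-Glo 2.0 luminescence read on Day 0 and Day 3, normalized to DMSO, four-parameter fit giving GI50.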

T1 sequence (P00533 669-1011 T790M/L858R): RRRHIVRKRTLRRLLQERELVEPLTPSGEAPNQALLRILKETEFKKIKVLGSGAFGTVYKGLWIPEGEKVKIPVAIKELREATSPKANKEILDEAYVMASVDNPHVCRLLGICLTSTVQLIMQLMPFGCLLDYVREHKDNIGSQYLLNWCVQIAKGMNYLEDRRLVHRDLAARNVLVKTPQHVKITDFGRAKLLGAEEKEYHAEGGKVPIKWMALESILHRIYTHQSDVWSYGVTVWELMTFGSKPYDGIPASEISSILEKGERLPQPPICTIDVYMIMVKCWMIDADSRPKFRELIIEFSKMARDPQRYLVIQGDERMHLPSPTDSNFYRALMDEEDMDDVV

| Kd [1] [nM] | GI50 (HeLa cells) [nM] | Kd (EGFR) [nM] | Kd [2] [nM] | SMILES | GI50 (HEK293 cells) [nM] |
| --- | --- | --- | --- | --- | --- |
| 50 to 500 | 500 to 1500 | 500 to 2500 | 500 to 2500 | CCC1C(=O)N(C)c2cnc(Nc3ccc(C(=O)NCCOCCOCCOCCOCCN(C)CC=CC(=O)NC4CN(c5nc(Nc6cn(C)nc6OC)c6ncn(C)c6n5)CC4F)cc3OC)nc2N1C1CCCC1 [Compound I-126, 4-[[(7R)-8-cyclopentyl-7-ethyl-5-methyl-6-oxo-7H-pteridin-2-yl]amino]-N-[2-[2-[2-[2-[2-[[(E)-4-[ [(3R,4R)-4-fluoro-1-1[6-1[(3-methoxy-1-methyl-pyrazol-4-yl)amino]-9-methyl-purin-2-yl]pyrrolidin-3-yl]amino]-4-oxo-but-2-enyl]-methyl-amino]ethoxy]ethoxy]ethoxy]ethoxy]ethyl]-3-methoxy-benzamide] | < 500 |
| < 50 | 1500 to 5000 | 50 to 500 | 50 to 500 | C=CC(=O)Nc1cc(Nc2nccc(-c3cn(C)c4ccccc34)n2)c(OC)cc1N(C)CCN(C)CCOCCON(C)C(=O)N1N=C(c2cc(F)ccc2F)S[C@@]1(CCCN)c1ccccc1 [Compound I-127, (2S)-2-(3-aminopropyl)-5-(2,5-difluorophenyl)-N-[2-[2-[2-[5-methoxy-N-methyl-4-[[4-(1-methylindol-3-yl)pyrimidin-2-yl]amino]-2-(prop-2-enoylamino)anilino]ethyl-methyl-amino]ethoxy]ethoxy]-N-methyl-2-phenyl-1,3,4-thiadiazole-3-carboxamide] | 500 to 1500 |
| < 50 | 500 to 1500 | 50 to 500 | 50 to 500 | C=CC(=O)N[C@@H]1CN(c2nc(Nc3cn(CCOCCOCCNC(=O)c4ccc(Nc5ncc6c(n5)N(C5CCCC5)[C@H](CC)C(=O)N6C)c(OC)c4)nc3OC)c3ncn(C)c3n2)C[C@H]1F [Compound I-128, 4-[[(7R)-8-cyclopentyl-7-ethyl-5-methyl-6-oxo-7H-pteridin-2-yl]amino]-N-[2[22-[2-[4-[[2-[(3R,4R)-3-fluoro-4-(prop-2-enoylamino)pyrrolidin-1-yl]-9-methyl-purin-6-yl]amino]-3-methoxy-pyrazol-1-yl]ethoxy]ethoxy]ethyl]-3-methoxy-benzamide] | 500 to 1500 |
| 50 to 500 | 500 to 1500 | 500 to 2500 | 500 to 2500 | CC[C@@H]1C(=O)N(C)c2cnc(Nc3ccc(C(=O)NCCOCCOCCOCCOCCN(C)C/C=C/C(=O)N[C@@H]4CN(c5nc(Nc6cn(C)nc6OC)c6ncn(C)c6n5)C[C@H]4F)cc3OC)nc2N1C1CCCC1 [Compound I-129, 4-[[(7R)-8-cyclopentyl-7-ethyl-5-methyl-6-oxo-7H-pteridin-2-yl]amino]-N-[2-[2-[2-[2-[2-[[(E)-4-[[(3R,4R)-4-fluoro-1-[6-[(3-methoxy-1-methyl-pyrazol-4-yl)amino]-9-methyl-purin-2-yl]pyrrolidin-3-yl]amino]-4-oxo-but-2-enyl]-methyl-amino]ethoxy]ethoxy]ethoxy]ethoxy]ethyl]-3-methoxy-benzamide] | 500 to 1500 |
| < 50 | 500 to 1500 | 500 to 2500 | 500 to 2500 | C=CC(=O)Nc1cc(Nc2nccc(-c3cn(C)c4ccccc34)n2)c(OC)cc1N(C)CCN(C)CCCON(C)C(=O)N1N=C(c2cc(F)ccc2F)S[C@@]1(CCCN)c1ccccc1 [Compound I-130, (2S)-2-(3-aminopropyl)-5-(2,5-difluorophenyl)-N-[3-[2-[5-methoxy-N-methyl-4-[[4-(1-methylindol-3-yl)pyrimidin-2-yl]amino]-2-(prop-2-enoylamino)anilino]ethyl-methyl-amino]propoxy]-N-methyl-2-phenyl-1,3,4-thiadiazole-3-carboxamide] | 500 to 1500 |
